ChEMBL document CHEMBL4699435, “Synthesis and biological screening of a library of macamides as TNF-alpha inhibitors” (RSC Med Chem, 2020)
Each block holds one molecule with its values, some of them ahead of it.

How the values were obtained:
[1] = Cytotoxicity against human THP-1 cells assessed as reduction in cell viability incubated for 72 hrs by MTT assay; format: cell-based
THP-1 [2] = assay: Inhibition of LPS-induced TNFalpha production in human THP-1 cells incubated for 2 hrs followed by LPS stimulation and measured after 12 hrs by ELISA; format: functional, cell-based
THP-1 [3] = assay: Potency index, ratio of IC50 of N-(2-hydroxyethyl)-7Z,10Z,13Z,16Z-docosatetraenamide to IC50 of compound for inhibition of LPS-induced TNFalpha production in human THP-1 cells incubated for 2 hrs followed by LPS stimulation and measured after 12 hrs by ELISA; format: functional
THP-1 [4] = assay: Potency index, ratio of IC50 of N-oleoyldopamine-macamide to IC50 of compound for inhibition of LPS-induced TNFalpha production in human THP-1 cells incubated for 2 hrs followed by LPS stimulation and measured after 12 hrs by ELISA; format: functional
THP-1 [5] = assay: Potency index, ratio of IC50 of C87 to IC50 of compound for inhibition of LPS-induced TNFalpha production in human THP-1 cells incubated for 2 hrs followed by LPS stimulation and measured after 12 hrs by ELISA; format: functional

Compound: CCCCC/C=C\C/C=C\CCCCCCCC(=O)NC(C)(C)c1ccccc1
CC50 at 72 h [1]: 97.3 µM
IC50 (THP-1 [2]): 13.1 µM

Compound: CCCCC/C=C\C/C=C\CCCCCCCC(=O)OCc1ccccc1
CC50 at 72 h [1]: 95.4 µM
IC50 (THP-1 [2]): 6.4 µM

Compound: CCCCC/C=C\C/C=C\CCCCCCCC(=O)NCc1ccccc1
CC50 at 72 h [1]: 98.4 µM
IC50 (THP-1 [2]): 14.2 µM

Compound: CCCCCCCC/C=C\CCCCCCCC(=O)NCc1ccccc1
CC50 at 72 h [1]: 97.3 µM
IC50 (THP-1 [2]): 15.2 µM

Compound: CCCCC/C=C\C/C=C\CCCCCCCC(=O)NCCc1ccccc1
CC50 at 72 h [1]: 88.2 µM
IC50 (THP-1 [2]): 15.7 µM

Compound: CCCCC/C=C\C/C=C\CCCCCCCC(=O)NC(CO)c1ccccc1 (configuration not stated)
CC50 at 72 h [1]: 98 µM
IC50 (THP-1 [2]): 56.8 µM

Compound: CCCCC/C=C\C/C=C\CCCCCCCC(=O)OC(C)c1cc(C)cc(C)c1 (configuration not stated)
CC50 at 72 h [1]: 90.1 µM
IC50 (THP-1 [2]): 0.009 µM
Ratio IC50 (THP-1 [3]): 200
Ratio IC50 (THP-1 [4]): 200
Ratio IC50 (THP-1 [5]): 12

Compound: CCCCCCCC/C=C\CCCCCCCC(=O)O [OLEIC ACID]
CC50 at 72 h [1]: 100 µM
IC50 (THP-1 [2]): 79 µM

Compound: CCCCCCCCCCCCCCCC(=O)NCc1ccccc1
CC50 at 72 h [1]: 100 µM
IC50 (THP-1 [2]): 43.1 µM

Compound: CCCCC/C=C\C/C=C\CCCCCCCC(=O)NC(CC)c1ccccc1 (configuration not stated)
CC50 at 72 h [1]: 96.5 µM
IC50 (THP-1 [2]): 19.7 µM

Compound: CCCCC/C=C\C/C=C\CCCCCCCC(=O)NNc1ccccc1
CC50 at 72 h [1]: 98.1 µM
IC50 (THP-1 [2]): 8.9 µM

Compound: CCCCC/C=C\C/C=C\CCCCCCCC(=O)NCCCc1ccccc1
CC50 at 72 h [1]: 80.3 µM
IC50 (THP-1 [2]): 8.3 µM

Compound: CCCCC/C=C\C/C=C\CCCCCCCC(=O)Nc1ccccc1
CC50 at 72 h [1]: 97.8 µM
IC50 (THP-1 [2]): 21 µM

Compound: CCCCCCCC/C=C\CCCCCCCC(=O)NCCc1ccc(O)c(O)c1 [OLEOYL DOPAMINE]
CC50 at 72 h [1]: > 100 µM
IC50 (THP-1 [2]): 3.54 µM

Compound: CCCCCCCCCCCCCCCCCC(=O)NCc1ccccc1
CC50 at 72 h [1]: 100 µM
IC50 (THP-1 [2]): 16.6 µM

Compound: CCCCCCCC(=O)NCc1ccccc1
CC50 at 72 h [1]: 100 µM
IC50 (THP-1 [2]): 58.7 µM

The next lines start with results.

IC50 (THP-1 [2]): 1 µM
Compound: CCCCC/C=C\C/C=C\CCCCCCCC(=O)NC(C)C(C)(C)C (configuration not stated)
CC50 at 72 h [1]: 94.7 µM

IC50 (THP-1 [2]): 0.78 µM
Compound: CCCCC/C=C\C/C=C\CCCCCCCC(=O)NC(C)C12CC3CC(CC(C3)C1)C2 (configuration not stated)
CC50 at 72 h [1]: 90.9 µM

IC50 (THP-1 [2]): 0.62 µM
Compound: CCCCC/C=C\C/C=C\CCCCCCCC(=O)NC(C)c1ccc(C)cc1 (configuration not stated)
CC50 at 72 h [1]: 95 µM

IC50 (THP-1 [2]): 0.33 µM
Compound: CCCCC/C=C\C/C=C\CCCCCCCC(=O)NC(C)c1cccc(C)c1 (configuration not stated)
CC50 at 72 h [1]: 91.7 µM

IC50 (THP-1 [2]): 0.74 µM
Compound: CCCCC/C=C\C/C=C\CCCCCCCC(=O)NC(C)c1ccc(Br)cc1 (configuration not stated)
CC50 at 72 h [1]: 81.4 µM

IC50 (THP-1 [2]): 0.71 µM
Compound: CCCCC/C=C\C/C=C\CCCCCCCC(=O)NC(C)C1CCCCC1 (configuration not stated)
CC50 at 72 h [1]: 93.2 µM

IC50 (THP-1 [2]): 0.78 µM
Compound: CCCCC/C=C\C/C=C\CCCCCCCC(=O)NC(C)c1ccc(F)cc1 (configuration not stated)
CC50 at 72 h [1]: 82.5 µM

IC50 (THP-1 [2]): 1.84 µM
Compound: CCCCC/C=C\C/C=C\CCCCCCCC(=O)NC(C)c1ccc(O)cc1 (configuration not stated)
CC50 at 72 h [1]: 93.5 µM

IC50 (THP-1 [2]): 5.2 µM
Compound: CCCCC/C=C\C/C=C\CCCCCCCC(=O)NC(C)c1ccccc1 (configuration not stated) [MALINAMIDE]
CC50 at 72 h [1]: 95.8 µM

IC50 (THP-1 [2]): 1.21 µM
Compound: CCCCC/C=C\C/C=C\CCCCCCCC(=O)NC(C)c1ccc(CC)cc1 (configuration not stated)
CC50 at 72 h [1]: 89.8 µM

IC50 (THP-1 [2]): 0.08 µM
Compound: CCCCC/C=C\C/C=C\CCCCCCCC(=O)NC(C)c1cc(C)cc(C)c1 (configuration not stated)
CC50 at 72 h [1]: 93.2 µM
